Laboratory results reported in patent US20050282743A1, “Molecular interactions in cells” (Arbor Vita Corporation, priority 2001, published 2005).
Like-named read-outs stand apart in the source and are kept apart here. Blank lines part the entries; values can stand above or below the molecule they belong to. Peptide text beside a SMILES is read from it. * marks the point of attachment. Biotin = O=C1N[C@H]2[C@H](CS[C@H]2CCCCC(=O)*)N1

Assays:
[1] = target: T1, PDZ-domain polypeptide (GST/PDZ fusion protein) (Homo sapiens, UniProt Q5TCQ9); assay: Apparent affinity (Kd) by titration of PL peptide in the G assay; type: binding
T1 construct: made in house; host or cells: E. coli (DH5alpha, BL21 or JM109)
T1 sequence (Q5TCQ9 1-1481): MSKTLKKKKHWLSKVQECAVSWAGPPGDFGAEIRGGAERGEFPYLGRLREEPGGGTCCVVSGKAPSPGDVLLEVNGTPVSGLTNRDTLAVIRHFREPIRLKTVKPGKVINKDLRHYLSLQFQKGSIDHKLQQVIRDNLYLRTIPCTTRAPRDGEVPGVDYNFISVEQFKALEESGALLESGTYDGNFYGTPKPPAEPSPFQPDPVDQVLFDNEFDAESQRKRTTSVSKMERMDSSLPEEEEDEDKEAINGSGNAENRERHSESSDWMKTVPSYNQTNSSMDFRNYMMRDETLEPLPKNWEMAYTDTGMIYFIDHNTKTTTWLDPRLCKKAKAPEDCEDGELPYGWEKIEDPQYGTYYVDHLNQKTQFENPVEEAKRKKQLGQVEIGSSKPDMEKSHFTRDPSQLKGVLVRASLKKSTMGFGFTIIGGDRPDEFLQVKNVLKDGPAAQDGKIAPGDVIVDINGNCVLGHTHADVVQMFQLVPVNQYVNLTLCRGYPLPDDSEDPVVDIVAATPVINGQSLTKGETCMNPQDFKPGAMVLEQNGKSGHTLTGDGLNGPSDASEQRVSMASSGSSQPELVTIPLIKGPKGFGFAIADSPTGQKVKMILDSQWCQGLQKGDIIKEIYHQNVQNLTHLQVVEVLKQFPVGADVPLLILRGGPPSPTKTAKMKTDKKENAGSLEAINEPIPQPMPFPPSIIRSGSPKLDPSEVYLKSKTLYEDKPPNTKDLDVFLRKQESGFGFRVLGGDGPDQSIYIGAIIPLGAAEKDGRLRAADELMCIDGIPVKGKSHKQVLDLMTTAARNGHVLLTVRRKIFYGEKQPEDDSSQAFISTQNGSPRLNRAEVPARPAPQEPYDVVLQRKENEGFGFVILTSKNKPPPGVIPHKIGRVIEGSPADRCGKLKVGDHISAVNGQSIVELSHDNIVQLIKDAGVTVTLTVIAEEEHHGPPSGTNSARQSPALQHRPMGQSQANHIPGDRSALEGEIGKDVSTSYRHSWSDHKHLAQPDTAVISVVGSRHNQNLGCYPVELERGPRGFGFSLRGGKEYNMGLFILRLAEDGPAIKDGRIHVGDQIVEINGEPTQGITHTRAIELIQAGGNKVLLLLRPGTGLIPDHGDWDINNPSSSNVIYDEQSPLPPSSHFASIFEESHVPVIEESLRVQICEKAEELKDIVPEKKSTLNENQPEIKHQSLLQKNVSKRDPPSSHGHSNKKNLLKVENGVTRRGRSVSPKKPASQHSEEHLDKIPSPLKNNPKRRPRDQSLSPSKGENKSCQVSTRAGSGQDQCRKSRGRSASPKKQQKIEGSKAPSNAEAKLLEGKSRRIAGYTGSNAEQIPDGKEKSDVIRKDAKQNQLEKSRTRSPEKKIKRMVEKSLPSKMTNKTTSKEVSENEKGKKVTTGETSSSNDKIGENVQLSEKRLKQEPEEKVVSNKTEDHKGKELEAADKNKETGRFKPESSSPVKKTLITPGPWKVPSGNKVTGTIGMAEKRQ
Summary of the method: (§1)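 A fixed concentration of GST/PDZ fusion protein, 5 ug/ml by default, was mixed in solution with increasing labeled PL peptide (e.g. 0.1 uM-1 mM). Reaction times ranged from 10 minutes to 2 days at 4-37° C. Complexes were separated from free peptide and detected via the label as in the G assay, apparent affinity coming from the saturating concentration.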

[2] = target: T2, PDZ-domain polypeptide (GST/PDZ fusion protein) (Homo sapiens, UniProt Q12923); assay: as above; type: binding
T2 construct: made in house; host or cells: E. coli (DH5alpha, BL21 or JM109)
Summary of the method: as §1

[3] = PDZ PTPL-1, PDZ Domain 2, read-out: Peptide Optimal Conc (Kd by titration of the PL peptide)
[4] = PDZ KIAA1634, PDZ Domain 1, read-out: Peptide Optimal Conc (Kd by titration of the PL peptide)

T2 sequence (Q12923 whole entry, the tested form may be a part): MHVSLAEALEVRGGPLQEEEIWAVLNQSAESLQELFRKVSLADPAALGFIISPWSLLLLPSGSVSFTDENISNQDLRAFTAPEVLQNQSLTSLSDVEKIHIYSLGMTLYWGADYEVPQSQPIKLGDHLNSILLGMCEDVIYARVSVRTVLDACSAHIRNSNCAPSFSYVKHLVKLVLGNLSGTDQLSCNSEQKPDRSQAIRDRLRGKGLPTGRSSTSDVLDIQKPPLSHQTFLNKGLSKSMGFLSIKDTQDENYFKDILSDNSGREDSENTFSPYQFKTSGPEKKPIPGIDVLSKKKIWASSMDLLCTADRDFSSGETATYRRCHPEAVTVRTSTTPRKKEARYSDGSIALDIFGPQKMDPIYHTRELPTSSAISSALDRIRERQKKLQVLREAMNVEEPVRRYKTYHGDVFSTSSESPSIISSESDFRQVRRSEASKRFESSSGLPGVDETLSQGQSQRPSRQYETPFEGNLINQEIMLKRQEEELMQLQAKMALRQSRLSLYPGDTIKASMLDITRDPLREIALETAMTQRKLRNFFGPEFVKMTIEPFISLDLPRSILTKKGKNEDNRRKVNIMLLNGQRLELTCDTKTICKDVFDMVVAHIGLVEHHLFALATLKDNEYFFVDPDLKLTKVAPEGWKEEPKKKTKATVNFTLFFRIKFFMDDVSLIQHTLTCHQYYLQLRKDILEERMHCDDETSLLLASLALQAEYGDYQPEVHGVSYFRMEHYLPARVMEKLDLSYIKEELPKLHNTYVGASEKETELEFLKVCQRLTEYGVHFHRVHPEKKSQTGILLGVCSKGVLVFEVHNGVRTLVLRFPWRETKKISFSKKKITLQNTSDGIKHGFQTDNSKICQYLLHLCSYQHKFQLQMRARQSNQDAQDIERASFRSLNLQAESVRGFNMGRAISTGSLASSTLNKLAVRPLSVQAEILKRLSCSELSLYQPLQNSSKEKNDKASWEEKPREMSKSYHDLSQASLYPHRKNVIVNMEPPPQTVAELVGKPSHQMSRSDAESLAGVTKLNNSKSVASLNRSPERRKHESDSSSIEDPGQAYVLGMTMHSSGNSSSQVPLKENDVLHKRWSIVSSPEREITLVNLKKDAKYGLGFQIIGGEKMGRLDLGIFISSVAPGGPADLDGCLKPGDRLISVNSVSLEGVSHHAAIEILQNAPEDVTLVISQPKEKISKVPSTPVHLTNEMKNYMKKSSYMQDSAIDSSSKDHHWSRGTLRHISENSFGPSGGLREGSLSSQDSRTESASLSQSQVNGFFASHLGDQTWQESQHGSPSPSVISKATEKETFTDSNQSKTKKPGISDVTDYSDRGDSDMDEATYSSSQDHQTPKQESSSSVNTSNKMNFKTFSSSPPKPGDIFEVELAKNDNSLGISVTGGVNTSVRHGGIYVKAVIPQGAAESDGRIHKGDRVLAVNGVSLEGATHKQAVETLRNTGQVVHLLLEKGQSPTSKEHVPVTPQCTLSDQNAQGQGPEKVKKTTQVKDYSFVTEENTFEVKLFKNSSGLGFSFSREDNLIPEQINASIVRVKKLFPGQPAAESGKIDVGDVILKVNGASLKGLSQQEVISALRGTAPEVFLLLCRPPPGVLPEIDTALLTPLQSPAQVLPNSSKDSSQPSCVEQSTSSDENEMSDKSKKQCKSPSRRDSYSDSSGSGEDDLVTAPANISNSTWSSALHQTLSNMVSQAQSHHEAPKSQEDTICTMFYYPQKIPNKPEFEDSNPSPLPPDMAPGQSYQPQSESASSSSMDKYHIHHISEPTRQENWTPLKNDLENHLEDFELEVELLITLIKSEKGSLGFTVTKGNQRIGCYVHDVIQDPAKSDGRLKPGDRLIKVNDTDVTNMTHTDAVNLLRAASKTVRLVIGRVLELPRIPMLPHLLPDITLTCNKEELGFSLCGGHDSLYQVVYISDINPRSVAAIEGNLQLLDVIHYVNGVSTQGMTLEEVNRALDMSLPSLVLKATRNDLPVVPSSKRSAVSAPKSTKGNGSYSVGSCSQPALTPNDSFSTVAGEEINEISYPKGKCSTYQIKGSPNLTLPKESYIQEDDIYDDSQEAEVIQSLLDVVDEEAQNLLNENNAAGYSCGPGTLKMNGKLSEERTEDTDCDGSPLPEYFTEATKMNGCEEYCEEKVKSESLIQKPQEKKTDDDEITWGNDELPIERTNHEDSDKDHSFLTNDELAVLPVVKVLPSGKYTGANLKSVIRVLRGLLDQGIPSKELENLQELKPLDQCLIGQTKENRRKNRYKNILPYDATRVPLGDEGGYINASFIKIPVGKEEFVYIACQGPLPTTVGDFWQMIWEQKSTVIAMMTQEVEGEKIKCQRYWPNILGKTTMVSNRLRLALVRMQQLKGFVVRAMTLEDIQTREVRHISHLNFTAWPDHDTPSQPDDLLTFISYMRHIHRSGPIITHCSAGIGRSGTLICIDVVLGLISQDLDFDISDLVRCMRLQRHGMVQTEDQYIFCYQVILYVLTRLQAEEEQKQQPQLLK

SMILES: CC[C@H](C)[C@H](NC(=O)[C@H](CC(=O)O)NC(=O)[C@H](CCC(=O)O)NC(=O)[C@H](CCCNC(=N)N)NC(=O)[C@@H](NC(=O)CCCC[C@@H]1SC[C@@H]2NC(=O)N[C@@H]21)[C@@H](C)O)C(=O)N[C@@H](Cc1ccc(O)cc1)C(=O)N[C@H](C(=O)N[C@@H](CC(N)=O)C(=O)N[C@@H](Cc1ccc(O)cc1)C(=O)N1CCC[C@H]1C(=O)N[C@H](C(=O)N[C@@H](Cc1ccccc1)C(=O)N[C@@H](CO)C(=O)N[C@@H](CCCNC(=N)N)C(=O)N[C@@H](CCCNC(=N)N)C(=O)N1CCC[C@H]1C(=O)N[C@@H](CCCCN)C(=O)N[C@H](C(=O)N[C@@H](CCCNC(=N)N)C(=O)N[C@H](C(=O)O)C(C)C)[C@@H](C)O)[C@@H](C)O)C(C)C [DNAM-1] (Biotin-TREDIYVNYPTFSRRPKTRV-OH; C-terminus assumed)
- Kd ([1]; Peptide Optimal Conc (Kd by titration of the PL peptide), PDZ KIAA1634, PDZ Domain 1): 1000 nM

- Kd ([1]; PDZ KIAA1634, PDZ Domain 5, read-out: Peptide Optimal Conc (non-zero value: Kd by titration of the PL peptide)): 2000 nM
SMILES: CC(C)C[C@H](NC(=O)[C@H](CC(=O)O)NC(=O)[C@H](CO)NC(=O)[C@H](CCC(=O)O)NC(=O)CNC(=O)[C@H](Cc1ccc(O)cc1)NC(=O)[C@H](CC(C)C)NC(=O)[C@H](C)NC(=O)[C@H](CO)NC(=O)[C@H](CO)NC(=O)[C@H](Cc1ccccc1)NC(=O)[C@H](C)NC(=O)[C@H](C)NC(=O)[C@H](Cc1ccc(O)cc1)NC(=O)[C@H](CC(=O)O)NC(=O)[C@H](CC(C)C)NC(=O)[C@H](C)NC(=O)CNC(=O)[C@@H]1CCCN1C(=O)[C@@H](NC(=O)CCCC[C@@H]1SC[C@@H]2NC(=O)N[C@@H]21)C(C)C)C(=O)O [a-actinin 2] (Biotin-VPGALDYAAFSSALYGESDL-OH; C-terminus assumed)

SMILES: CC[C@H](C)[C@H](NC(=O)[C@H](CCC(N)=O)NC(=O)[C@@H](NC(=O)[C@H](Cc1c[nH]cn1)NC(=O)[C@H](CCC(N)=O)NC(=O)[C@H](CC(=O)O)NC(=O)[C@H](CCC(=O)O)NC(=O)[C@H](CC(=O)O)NC(=O)[C@H](Cc1ccccc1)NC(=O)[C@@H]1CCCN1C(=O)[C@H](CCC(=O)O)NC(=O)[C@H](CC(N)=O)NC(=O)[C@H](CCC(=O)O)NC(=O)[C@@H]1CCCN1C(=O)[C@H](CC(=O)O)NC(=O)[C@H](CO)NC(=O)[C@H](CC(=O)O)NC(=O)CCCC[C@@H]1SC[C@@H]2NC(=O)N[C@@H]21)[C@@H](C)O)C(=O)N[C@H](C(=O)N[C@@H](CCCCN)C(=O)N[C@H](C(=O)O)C(C)C)[C@@H](C)O [PTEN]
- Kd [2, 3]: 300 nM

- Kd [1, 4]: 100 nM
SMILES: CC(C)C[C@H](NC(=O)CNC(=O)[C@@H](NC(=O)[C@H](CO)NC(=O)[C@H](CC(N)=O)NC(=O)[C@H](Cc1ccccc1)NC(=O)CNC(=O)[C@H](C)NC(=O)[C@H](C)NC(=O)[C@H](Cc1ccccc1)NC(=O)[C@@H](NC(=O)CCCC[C@@H]1SC[C@@H]2NC(=O)N[C@@H]21)[C@@H](C)O)[C@@H](C)O)C(=O)N1CCC[C@H]1C(=O)N[C@@H](Cc1c[nH]cn1)C(=O)N[C@@H](CO)C(=O)N[C@H](C(=O)N[C@H](C(=O)N[C@@H](CCCNC(=N)N)C(=O)N[C@H](C(=O)O)C(C)C)[C@@H](C)O)[C@@H](C)O [Neuroligin] (Biotin-TFAAGFNSTGLPHSTTRV-OH; C-terminus assumed)

- Kd ([2]; PDZ PTPL-1, PDZ Domain 4, read-out: Peptide Optimal Conc (Kd by titration of the PL peptide)): 400 nM
- Kd [1, 4]: 900 nM
SMILES: CC(C)C[C@H](NC(=O)[C@H](Cc1c[nH]c2ccccc12)NC(=O)[C@H](Cc1c[nH]cn1)NC(=O)[C@H](CCCNC(=N)N)NC(=O)[C@H](CC(C)C)NC(=O)[C@@H](NC(=O)[C@H](Cc1ccccc1)NC(=O)[C@H](CCC(N)=O)NC(=O)[C@H](CCCNC(=N)N)NC(=O)[C@@H](NC(=O)[C@H](CCC(=O)O)NC(=O)CNC(=O)[C@H](CCCNC(=N)N)NC(=O)[C@H](CC(=O)O)NC(=O)[C@@H](NC(=O)[C@H](CC(C)C)NC(=O)[C@H](CCC(=O)O)NC(=O)[C@H](CCCNC(=N)N)NC(=O)CCCC[C@@H]1SC[C@@H]2NC(=O)N[C@@H]21)C(C)C)C(C)C)[C@@H](C)O)C(=O)N[C@@H](CCCCN)C(=O)N[C@H](C(=O)O)C(C)C [Dopamine transporter (Na+-dependent)] (Biotin-RELVDRGEVRQFTLRHWLKV-OH; C-terminus assumed)

- Kd ([2]; PDZ PTPL-1, PDZ Domain 4, titration of the PL peptide, read-out: Peptide Optimal Conc (Kd, dissociation constant)): 8000 nM
SMILES: CC[C@H](C)[C@H](NC(=O)[C@H](Cc1ccc(O)cc1)NC(=O)[C@H](CC(C)C)NC(=O)[C@H](CCC(N)=O)NC(=O)[C@H](Cc1c[nH]cn1)NC(=O)[C@H](CO)NC(=O)[C@H](C)NC(=O)[C@H](CC(C)C)NC(=O)[C@@H](NC(=O)[C@H](CC(=O)O)NC(=O)[C@H](CCSC)NC(=O)[C@H](Cc1ccccc1)NC(=O)[C@@H]1CCCN1C(=O)[C@H](CCCNC(=N)N)NC(=O)[C@@H](NC(=O)[C@H](CC(C)C)NC(=O)[C@H](CC(N)=O)NC(=O)[C@H](CC(=O)O)NC(=O)[C@@H](NC(=O)[C@H](CO)NC(=O)CCCC[C@@H]1SC[C@@H]2NC(=O)N[C@@H]21)[C@@H](C)O)C(C)C)[C@@H](C)O)C(=O)O [presenilin-2] (Biotin-STDNLVRPFMDTLASHQLYI-OH; C-terminus assumed)

- Kd [2, 3]: 200 nM
SMILES: CC(C)C[C@H](NC(=O)[C@H](CC(C)C)NC(=O)[C@@H](NC(=O)[C@H](CC(=O)O)NC(=O)CCCC[C@@H]1SC[C@@H]2NC(=O)N[C@@H]21)[C@@H](C)O)C(=O)N[C@@H](CC(C)C)C(=O)N[C@H](C(=O)N[C@@H](CCC(=O)O)C(=O)N[C@@H](CC(N)=O)C(=O)N[C@@H](CCC(=O)O)C(=O)NCC(=O)N[C@@H](CC(=O)O)C(=O)N[C@@H](CCCCN)C(=O)N[C@H](C(=O)N[C@@H](CCC(=O)O)C(=O)N[C@@H](CCC(=O)O)C(=O)N[C@@H](CCC(N)=O)C(=O)N[C@H](C(=O)N[C@@H](CO)C(=O)N[C@@H](Cc1ccc(O)cc1)C(=O)N[C@H](C(=O)O)C(C)C)C(C)C)[C@@H](C)O)[C@@H](C)O [5H2B_HUMAN] (Biotin-DTLLLTENEGDKTEEQVSYV-OH; C-terminus assumed)

SMILES: CC[C@H](C)[C@H](NC(=O)[C@H](CO)NC(=O)[C@@H](NC(=O)[C@H](Cc1ccccc1)NC(=O)[C@H](CO)NC(=O)CCCC[C@@H]1SC[C@@H]2NC(=O)N[C@@H]21)[C@@H](C)O)C(=O)N[C@@H](CC(C)C)C(=O)N[C@H](C(=O)N[C@@H](CS)C(=O)N[C@@H](Cc1c[nH]cn1)C(=O)N[C@@H](CCC(N)=O)C(=O)N[C@@H](CCCNC(=N)N)C(=O)N[C@@H](CCCNC(=N)N)C(=O)N[C@H](C(=O)N[C@@H](CCC(N)=O)C(=O)N[C@@H](CCCNC(=N)N)C(=O)N[C@@H](CCCCN)C(=O)N[C@@H](CCC(=O)O)C(=O)N[C@H](C(=O)N[C@H](C(=O)N[C@@H](C)C(=O)O)C(C)C)[C@@H](C)O)[C@@H](C)O)[C@@H](C)O [GluR5-2 (rat)]
- Kd ([1]; PDZ KIAA1634, PDZ Domain 1, titration of the PL peptide, read-out: Peptide Optimal Conc (Kd, dissociation constant)): 150 nM
